# Laboratory results from ChEMBL document CHEMBL5335777 (Eur J Med Chem, 2023).
# Calls of active or inactive are those of the source. No cut-off for these calls is given here.
# What was measured:
# [1] = tested on: SW1573; assay: Antiproliferative activity against human SW1573 cells harboring homozygous KRAS G12C mutant assessed as inhibition of cell growth incubated for 72 hrs by MTT assay; assay type: functional, cell-based; conditions: SW1573, 72 h
# [2] = tested on: A549; assay: Antiproliferative activity against human A549 cells harboring homozygous KRAS G12S mutant assessed as inhibition of cell growth incubated for 72 hrs by MTT assay; assay type: functional, cell-based; conditions: A549, 72 h
# [3] = species on record: Homo sapiens; assay: Inhibition of GDP-bound human KRAS 149stop G12C mutant expressed in Escherichia coli BL21 Rosetta cells assessed as inhibition of SOS1 mediated nucleotide exchange at 250 uM measured after 24 hrs by fluorescence based analysis
# [4] = tested on: GTPase KRas (Homo sapiens), P01116 [G12C]; assay: Covalent binding affinity to GDP-bound human KRAS-4B G12C mutant (1 to 169 residues) expressed in Escherichia coli BL21 Rosetta cells at 200 uM measured after 4 hrs by Ellman's assay
# [5] = Cmax in NOD-SCID mouse at 15 mg/kg, ip administered as single dose and measured upto 48 hrs by HPLC/MS analysis; assay type: ADME, organism-based; parameters: time < 48 hrs, dose 15 mg/kg, route ip; conditions: in vivo
# [6] = tested on: GTPase KRas (Homo sapiens), P01116 [G12C]; assay: Covalent binding affinity to GDP-bound human KRAS-4B G12C mutant (1 to 169 residues) expressed in Escherichia coli BL21 Rosetta cells assessed as reduction in free Cys residues at 200 uM measured after 1 hr by Ellman's assay
# [7] = tested on: GTPase KRas (Homo sapiens), P01116 [G12C]; assay: Reversible binding affinity to GDP-bound human KRAS-4B G12C mutant (1 to 169 residues) expressed in Escherichia coli BL21 Rosetta cells by intact LCMS analysis
# [8] = tested on: LCLC-103H cell line; assay: Antiproliferative activity against human LCLC-103H cells harboring wild type KRAS assessed as inhibition of cell growth incubated for 72 hrs by MTT assay; assay type: functional, cell-based
# [9] = tested on: PANC-1; assay: Antiproliferative activity against human PANC-1 cells harboring heterozygous KRAS G12D mutant assessed as inhibition of cell growth incubated for 72 hrs by MTT assay; assay type: functional, cell-based; conditions: PANC-1, 72 h
# [10] = Cytotoxicity against HUVEC cells immortalized with TERT assessed as inhibition of cell growth incubated for 72 hrs by MTT assay; assay type: toxicity, cell-based; conditions: human
# [11] = (§1) Toxicity in immunodeficient NOD-SCID mouse xenografted with human LCLC-103H cells harboring wild type KRAS assessed as body weight at 5 to 30 mg/kg, ip administered for 5 times at 5 mg/kg in first week followed by administration at 20 mg/kg 5 times in second week and further administered 30 mg/kg 3 times in third week measured 17 days post treatment initiation and 35 days post tumor transplantation (reference value: 2.6 g); assay type: organism-based; conditions: in vivo, 408 h, dose 5-30 mg/kg, time 17 day
# [12] = tested on: NCI-H358; assay: Antiproliferative activity against human NCI-H358 cells harboring heterozygous KRAS G12C mutant assessed as inhibition of cell growth incubated for 72 hrs by MTT assay; assay type: functional, cell-based; conditions: NCI-H358, 72 h
# [13] = tested on: GTPase KRas (Homo sapiens), P01116 [G12C]; assay: Binding affinity to Cys118 residue of GDP bound human KRAS-4B G12C mutant (1 to 169 residues) expressed in Escherichia coli BL21 Rosetta cells at 150 to 500 uM measured after 96 hrs by 1H-15N HSQC NMR spectral analysis; conditions: dose 150-500 µM
# [14] = tested on: GTPase KRas (Homo sapiens), P01116 [G12C]; assay: Covalent binding affinity to GDP-bound human KRAS-4B G12C mutant (1 to 169 residues) expressed in Escherichia coli BL21 Rosetta cells at 200 uM measured after 15 mins by Ellman's assay
# [15] = Half life in NOD-SCID mouse at 15 mg/kg, ip administered as single dose and measured upto 48 hrs by HPLC/MS analysis; assay type: ADME, organism-based; conditions: in vivo
# [16] = Antiproliferative activity against human HCA-7 cells harboring wild type KRAS assessed as inhibition of cell growth incubated for 72 hrs by MTT assay; assay type: functional, cell-based, HCA7; conditions: HCA-7, 72 h
# [17] = species on record: Homo sapiens; assay: Inhibition of GDP-bound human KRAS 149stop G12C mutant expressed in Escherichia coli BL21 Rosetta cells assessed as inhibition of EDTA mediated nucleotide exchange at 250 uM measured after 24 hrs by fluorescence based analysis
# [18] = tested on: MIA PaCa-2; assay: Antiproliferative activity against human MIA PaCa-2 cells harboring homozygous KRAS G12C mutant assessed as inhibition of cell growth incubated for 72 hrs by MTT assay; assay type: functional, cell-based; conditions: MIA PaCa-2, 72 h
# [19] = as §1, with “NCI-H1792” for “LCLC-103H”, “harboring” for “harboring wild type”, “KRAS G12C mutant” for “KRAS”, “20” for “17”, “38” for “35”, “6.6” for “2.6”; assay type: organism-based; conditions: in vivo, 480 h, dose 5-30 mg/kg, time 20 day
# [20] = tested on: GTPase KRas (Homo sapiens), P01116 [G12C]; assay: Binding affinity to Cys51 residue of GDP bound human KRAS-4B G12C mutant (1 to 169 residues) expressed in Escherichia coli BL21 Rosetta cells at 150 to 500 uM measured after 96 hrs by 1H-15N HSQC NMR spectral analysis; conditions: dose 150-500 µM
# [21] = Cytotoxicity against human MRC5 cells assessed as inhibition of cell growth incubated for 72 hrs by MTT assay; assay type: toxicity, cell-based
# [22] = tested on: LCLC-103H cell line; assay: Antitumor activity against human LCLC-103H cells harboring wild type KRAS xenografted in immunodeficient NOD-SCID mouse assessed as tumor volume at 5 to 30 mg/kg, ip administered for 5 times at 5 mg/kg in first week followed by administration at 20 mg/kg 5 times in second week and further administered 30 mg/kg 3 times in third week measured 17 days post treatment initiation and 35 days post tumor transplantation by digital caliper based analysis; assay type: functional; conditions: dose 5-30 mg/kg, time 17 day
# [23] = tested on: NCI-H1792; assay: Antiproliferative activity against human NCI-H1792 cells harboring heterozygous KRAS G12C mutant assessed as inhibition of cell growth incubated for 72 hrs by MTT assay; assay type: functional, cell-based; conditions: NCI-H1792, 72 h
# [24] = Tmax in NOD-SCID mouse at 15 mg/kg, ip administered as single dose and measured upto 48 hrs by HPLC/MS analysis; assay type: ADME, organism-based; conditions: in vivo
# [25] = tested on: BXPC-3; assay: Antiproliferative activity against human BXPC-3 cells harboring wild type KRAS assessed as inhibition of cell growth incubated for 72 hrs by MTT assay; assay type: functional, cell-based; conditions: BXPC-3, 72 h
# [26] = tested on: NCI-H1792; assay: Antiproliferative activity against human NCI-H1792 cells harboring KRAS G12C mutant assessed as cell viability at 25 uM incubated for 72 hrs by MTT assay relative to control; assay type: functional; conditions: read-out: Activity
# [27] = as §1, with “NCI-H1792” for “LCLC-103H”, “harboring” for “harboring wild type”, “KRAS G12C mutant” for “KRAS”, “6.6” for “2.6”; assay type: organism-based; conditions: in vivo, 408 h, dose 5-30 mg/kg, time 17 day
# [28] = tested on: SW480; assay: Antiproliferative activity against human SW480 cells harboring homozygous KRAS G12V mutant assessed as inhibition of cell growth incubated for 72 hrs by MTT assay; assay type: functional, cell-based; conditions: SW480, 72 h
# [29] = tested on: GTPase KRas (Homo sapiens), P01116 [G12C]; assay: Binding affinity to Cys12 residue of GDP bound human KRAS-4B G12C mutant (1 to 169 residues) expressed in Escherichia coli BL21 Rosetta cells at 150 to 500 uM measured after 96 hrs by 1H-15N HSQC NMR spectral analysis; conditions: dose 150-500 µM
# [30] = tested on: NCI-H1792; assay: Antiproliferative activity against human NCI-H1792 cells harboring KRAS G12C mutant assessed as reduction in cell viability at 2.5 uM incubated for 72 hrs by MTT assay; assay type: functional, cell-based
# [31] = tested on: GTPase KRas (Homo sapiens), P01116 [G12C]; assay: Binding affinity to Cys80 residue of GDP bound human KRAS-4B G12C mutant (1 to 169 residues) expressed in Escherichia coli BL21 Rosetta cells at 150 to 500 uM measured after 96 hrs by 1H-15N HSQC NMR spectral analysis; conditions: dose 150-500 µM
# [32] = tested on: NCI-H1792; assay: Antitumor activity against human NCI-H1792 cells harboring KRAS G12C mutant xenografted in immunodeficient NOD-SCID mouse assessed as reduction in tumor growth at 5 to 30 mg/kg, ip administered for 5 times at 5 mg/kg in first week followed by administration at 20 mg/kg 5 times in second week and further administered 30 mg/kg 3 times in third week measured 17 days post treatment initiation and 35 days post tumor transplantation by digital caliper based analysis relative to control; assay type: functional; parameters: scale not given: the % may be the effect or the level left; conditions: dose 5-30 mg/kg, time 17 day
# [33] = Clearance in NOD-SCID mouse at 15 mg/kg, ip administered as single dose and measured upto 48 hrs by HPLC/MS analysis; assay type: ADME, organism-based; conditions: in vivo
# [34] = Cytotoxicity against human CCD-986Sk cells assessed as inhibition of cell growth incubated for 72 hrs by MTT assay; assay type: toxicity, cell-based
# [35] = AUCt in NOD-SCID mouse at 15 mg/kg, ip administered as single dose and measured upto 48 hrs by HPLC/MS analysis; assay type: ADME, organism-based; parameters: dose 15 mg/kg, time < 48 hrs, route ip; conditions: in vivo
# [36] = Volume of distribution in NOD-SCID mouse at 15 mg/kg, ip administered as single dose and measured upto 48 hrs by HPLC/MS analysis; assay type: ADME, organism-based; conditions: in vivo
Cmax [5] [ng/mL],IC50 [12] [µM],half-life [15] [h],IC50 [18] [µM],IC50 [23] [µM],Tmax [24] [h],CL/F [33] [mL/min],AUC(0-t) at 48 h [35] [ng·h/mL],Vd [36] [mL],SMILES,inhibition [3],IC50 at 72 h [10] [µM],Activity [11] [g],IC50 [16] [µM],inhibition [17],Activity [22] [mm3],viability at 25 µM [26] [%],Activity [27] [g],Activity [30],Activity [32] [%],IC50 at 72 h [34] [µM],other results
27400,12.3,4,24.5,11.4,0.25,0.183,28300,63.6,O=Cc1c(O)ccc2ccccc12,Active,10.8,0,26.2,Active,9.2,< 50,5.2,Active,32.5,66.2,IC50 [1]: 24.2 µM; IC50 [2]: 43.3 µM; Activity [4]: 100%; Activity [6]: Active; Activity [7]: Active; IC50 [8]: 32.4 µM; IC50 [9]: 27.6 µM; Activity [13]: inactive; Activity [14]: Active; Activity [19]: 4.9 g; Activity [20]: inactive; IC50 at 72 h [21]: 25 µM; IC50 [25]: 46.9 µM; IC50 [28]: 44.5 µM; Activity [29]: Active; Activity [31]: inactive
5850,0.3,2.9,0.5,10.9,0.25,1.37,3740,363,C=CC(=O)N1CCN(c2ncnc3c(F)c(-c4c(O)cccc4F)c(Cl)cc23)CC1,Active,0.7,0.8,23.4,Active,7.9,< 50,3.7,Active,17.9,52.2,–
